According to PubChem BioAssay (NCI):
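Growth conditions: 96-well plates. Treatment: test compound, 48 hours, 5 concentrations. Analysis: linear interpolation between bracketing concentrations; unreached endpoints set to highest concentration. Here, GI50 denotes the concentration required for 50% inhibition of growth. At the TGI there is no net growth.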

Legend:
Assay in all cases: NCI anticancer screen, dose series, 48 h
[1] = test system: K-562 leukemia
[2] = test system: OVCAR-8 ovarian
[3] = test system: OVCAR-3 ovarian
[4] = test system: NCI-H226 lung
[5] = test system: SK-MEL-28 melanoma
[6] = test system: PC-3 prostate
[7] = test system: ACHN renal
[8] = test system: OVCAR-5 ovarian
[9] = test system: NCI/ADR-RES ovarian
[10] = test system: HCC-2998 colon

Compound | TGI [1] | TGI [2] | TGI [3] | TGI [4] | TGI [5] | TGI [6] | TGI [7] | TGI [8] | TGI [9] | GI50 [1] | GI50 [2] | GI50 [3] | GI50 [4] | GI50 [5] | GI50 [6] | GI50 [10] | TGI [10] | GI50 [7] | GI50 [8] | GI50 [9]
COc1ccc(/C=C(/C#N)C(N)=O)c(OC)c1 | > 100 µM | > 100 µM | > 100 µM | > 100 µM | > 100 µM | > 100 µM | > 100 µM | > 100 µM | > 100 µM | – | – | – | – | – | – | – | – | – | – | –
CS(=O)(=O)Nc1cncc(-c2ccc3ncnc(Nc4ccc(F)c(Cl)c4)c3c2)c1 | 20.1 µM | 23.7 µM | 7.19 µM | 21.3 µM | 15.6 µM | 15 µM | > 100 µM | 22 µM | 60 µM | 3.88 µM | 3.73 µM | 1.58 µM | 2.57 µM | 2.65 µM | 2.69 µM | 4.19 µM | 16.8 µM | 1.69 µM | 2.4 µM | 15.4 µM
Cc1cc(S(=O)(=O)Nc2nc3ccccc3o2)c(SCc2ccccc2)cc1Cl | > 100 µM | 50.2 µM | 42.1 µM | 72.9 µM | 62.9 µM | 30.5 µM | 38.4 µM | 46.1 µM | 40.9 µM | 31.8 µM | 21 µM | 16.7 µM | 26.4 µM | 25.6 µM | 16.1 µM | – | – | 17.9 µM | 20.3 µM | 20 µM
c1ccc2sc(SCCSc3nc4ccccc4s3)nc2c1 | > 100 µM | > 100 µM | > 100 µM | – | > 100 µM | > 100 µM | > 100 µM | > 100 µM | > 100 µM | – | – | – | – | – | – | – | > 100 µM | – | – | –
O=C(CC(Cl)=C(Cl)Cl)Nc1ccccc1 | – | > 100 µM | – | > 100 µM | > 100 µM | > 100 µM | > 100 µM | > 100 µM | > 100 µM | – | > 100 µM | – | > 100 µM | > 100 µM | > 100 µM | – | – | > 100 µM | > 100 µM | > 100 µM
Cc1cc(O)c(=O)cc2c1C[C@H]1CC(C)(C)/C=C/C[C@]3(C)Oc4cc(=O)c(O)cc(C)c4C[C@H]3C[C@H](O)[C@@]1(C)O2 | – | 11.6 µM | 19.6 µM | 13.6 µM | 19.9 µM | 23.5 µM | 14.5 µM | > 100 µM | – | – | < 0.01 µM | < 0.01 µM | 0.0541 µM | 0.0423 µM | < 0.01 µM | < 0.0149 µM | > 100 µM | < 0.01 µM | 0.0434 µM | < 0.01 µM
COc1cc(Nc2nc3cc(N)cc(N)c3nc2-c2ccccc2)cc(OC)c1OC | 40.1 µM | 34.9 µM | 37.1 µM | – | 20.7 µM | 59.3 µM | 43 µM | 46.7 µM | 44.1 µM | 12.5 µM | 15.3 µM | 14.2 µM | – | 1.45 µM | 14.2 µM | – | – | 16.7 µM | 21.3 µM | 14.4 µM
